Measured values as given in US10426757B2, “Compositions and methods for promoting intestinal stem cell and/or non-stem progenitor cell function” (Whitehead Institute for Biomedical Research, priority 2014, dated 2019).
Entries after “also recorded” stand apart in the source; their conditions may differ.

Tested on: control diet-derived organoids
Experiment: Ex vivo exposure of crypts and organoids to palmitic acid
Assay type: cell-based, mouse
Description: To examine whether PA, like a HFD, augmented the numbers of ISCs per primary organoid, we assayed the self-renewal capacity of the primary organoids in secondary cultures and assessed how PA-treatment influenced the frequency of ISCs.
Isolated crypts were counted and embedded in Matrigel™ (Corning 356231 growth factor reduced) at 5-10 crypts per μl and cultured in a modified form of medium as described previously.^14 Briefly, Advanced DMEM (Gibco) was supplemented by EGF 40 ng ml^−1 (R&D), Noggin 200 ng ml^−1 (Peprotech), R-spondin […](R&D or Sino Biological), N-acetyl-L-cysteine 1 μM (Sigma-Aldrich), N2 1X (Life Technologies), B27 1X (Life Technologies), Chiron 10 μM (Stemgent), Y-27632 dihydrochloride monohydrate 20 ng ml^−1 (Sigma-Aldrich). 25 μL drops of Matrigel™ with crypts were plated onto a flat bottom 48-well plate (Corning 3548) and allowed to solidify for 20-30 minutes in a 37° C. incubator. Three hundred microliters of crypt culture medium was then overlaid onto the Matrigel™, changed every three days, and maintained at 37° C. in fully humidified chambers containing 5% CO2. Clonogenicity (colony-forming efficiency) was calculated by plating 50-300 crypts and assessing organoid formation 3-7 days or as specified after initiation of cultures.
Isolated ISCs or progenitor cells were centrifuged for 5 minutes at 250 g, re-suspended in the appropriate volume of crypt culture medium (500-1,000 cells μl^−1), then seeded onto 25-30 μl Matrigel™ (Corning 356231 growth factor reduced) containing 1 μM jagged (Ana-Spec) in a flat bottom 48-well plate (Corning 3548). Alternatively, ISCs and Paneth cells were mixed after sorting in a 1:1 ratio, centrifuged, and then seeded onto Matrigel™. The Matrigel™ and cells were allowed to solidify before adding 300 μl of crypt culture medium. The crypt media was changed every second or third day. Organoid bodies were quantified on days 3, 7 and 10 of culture, unless otherwise specified. With respect to the study results presented in FIGS. 14-16, organoid bodies were quantified on day 3-4. […]

## CCCCCCCCCCCCCCCC(=O)O [PA, palmitic acid]
30 μM PA
  primary organoid formation (clonogenic potential of crypts): did not change; also recorded: no effect
30 μM PA, four weeks
  secondary organoid-forming activity: more than twofold increase; also recorded: more secondary organoid-forming activity
four-week PA treatment
  frequency of Lgr5-GFP^hi ISCs in organoids: twofold increase; also recorded: increased the frequency
